Where two headings read alike, the source gives them in different places.
Target: T1, purified catalytic domain of recombinant human TACE (rhTACEc) (Homo sapiens, UniProt P78536, N452Q/S266A)
T1 construct: Residue 215 to 477 with two mutation (S266A and N452Q) and a 6×His tail; 6xHis (C); made in house; host or cells: baculovirus/Hi5 insect cells
Test: TACE kinetic assay: cleavage of internally quenched peptide substrate SPDL-3, fluorescence
Format: biochemical
Settings: read-out: Ki
Description: TACE activity is determined by a kinetic assay measuring the rate of increase in fluorescent intensity generated by TACE catalyzed cleavage of an internally quenched peptide substrate (SPDL-3). […] It is purified from the baculovirus/Hi5 cells expression system using affinity chromatography. […] MCA is (7-Methoxycoumarin-4-yl)acetyl. Dpa is N-3-(2,4-Dinitrophenyl)-L-2,3-diaminopropionyl.
A 50 μl assay mixture contains 20 mM HEPES, pH 7.3, 5 mM CaCl2, 100 μM ZnCl2, 2% DMSO, 0.04% Methylcellulose, 30 μM SPDL-3, 70 pM rhTACEc and a test compound. RhTACEc is pre-incubated with the testing compound for 90 min. at 25° C. Reaction is started by addition of the substrate. […] Rate of enzymatic reaction is shown as Units per second. Effect of a test compound is shown as % of TACE activity in the absence of the compound.

[1] = TACE inhibitory activity, class symbols
[2] = TACE, representative compounds, numeric values

T1 sequence (P78536 215-477 S266A/N452Q): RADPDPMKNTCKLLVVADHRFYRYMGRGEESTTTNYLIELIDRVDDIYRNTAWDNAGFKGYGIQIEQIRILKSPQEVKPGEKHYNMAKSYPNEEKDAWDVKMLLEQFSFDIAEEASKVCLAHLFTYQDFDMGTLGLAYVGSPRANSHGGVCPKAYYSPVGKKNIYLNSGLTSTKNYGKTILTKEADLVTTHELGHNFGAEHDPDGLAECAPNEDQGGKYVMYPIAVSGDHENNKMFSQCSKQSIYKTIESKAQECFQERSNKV

Row | Compound | Ki [1] [µM] | Ki [2] [µM]
1 | N#Cc1ccccc1N1CCC2(CC1)CC2NC(=O)[C@H](O)[C@@H](O)C(=O)N1Cc2ccccc2C1 (stereo partly drawn) [Compound 2155] | > 1 | –
2 | C[C@@H](NC(=O)[C@H](O)[C@@H](O)C(=O)N1CC(C)(C)CC1(C)c1nccs1)c1ccc(-n2cccn2)cc1 (stereo partly drawn) [Compound 2241] | 0.1 to 1 | –
3 | C[C@@H](NC(=O)[C@H](O)[C@@H](O)C(=O)N1CCCC1(C)c1ccccc1)c1ccc(-n2cccn2)cc1 (stereo partly drawn) [Compound 2235] | < 0.02 | –
4 | C[C@](O)(C(=O)NCC1CCN(c2ccc(F)cc2C#N)CC1)[C@@H](O)C(=O)N1Cc2cccnc2C1 [Compound 2034] | 0.02 to 0.1 | –
5 | Cc1nc2c(s1)CN(C(=O)[C@H](O)[C@@H](O)C(=O)NCC1CCN(c3ccccc3C#N)CC1C)C2 (stereo partly drawn) [Compound 2151] | < 0.02 | –
6 | N#Cc1cc(F)ccc1N1[C@@H]2CC[C@H]1CC(CNC(=O)[C@H](O)[C@@H](O)C(=O)N1Cc3ccccc3C1)C2 (stereo partly drawn) [Compound 2149] | 0.1 to 1 | –
7 | CNc1ncc2c(n1)C(C)N(C(=O)[C@H](O)[C@@H](O)C(=O)N[C@H](C)c1ccc(-n3cccn3)cc1)C2 (stereo partly drawn) [Compound 2053] | 0.02 to 0.1 | –
8 | CCOc1c(F)cccc1N1CCC(CNC(=O)[C@H](O)[C@@H](O)C(=O)N2CCCC2)CC1 [Compound 2141] | > 1 | –
9 | C[C@@H](NC(=O)[C@H](O)[C@@H](O)C(=O)N1CCc2nc(N)sc2C1)c1ccc(-n2cccn2)cc1 [Compound 2081] | < 0.02 | –
10 | C[C@@H](NC(=O)[C@H](O)[C@@H](O)C(=O)N1Cc2cccnc2C1)c1ccc(-n2cccn2)cc1 [Compound 2032] | < 0.02 | –
11 | CCNc1nnc(C2c3ccccc3CN2C(=O)[C@H](O)[C@@H](O)C(=O)N[C@H](C)c2ccc(-n3cccn3)cc2)o1 (stereo partly drawn) | – | 0.00056
12 | C[C@@H](NC(=O)[C@H](O)[C@@H](O)C(=O)N1CCc2[nH]ncc2C1)c1ccc(-n2cccn2)cc1 [Compound 2073] | 0.02 to 0.1 | –
13 | C[C@@H](NC(=O)[C@](C)(O)[C@@H](O)C(=O)N1Cc2ccncc2C1)c1ccc(-n2cccn2)cc1 [Compound 2039] | < 0.02 | –
14 | Cc1ncc2c(n1)CN(C(=O)[C@H](O)[C@@H](O)C(=O)N[C@H](C)c1ccc(-n3cccn3)cc1)C2 [Compound 2045] | 0.1 to 1 | –
15 | C[C@@H](NC(=O)[C@H](O)[C@@H](O)C(=O)N1Cc2cncnc2C1(C)C)c1ccc(-n2cccn2)cc1 [Compound 2046] | 0.1 to 1 | –
16 | CNc1ncc2c(n1)CN(C(=O)[C@H](O)[C@@H](O)C(=O)N[C@H](C)c1ccc(-n3cccn3)cc1)C2 [Compound 2052] | < 0.02 | –
17 | O=C(NCC1CCN(c2ccccc2OC(F)(F)F)CC1)[C@H](O)[C@@H](O)C(=O)N1Cc2ccncc2C1 [Compound 2040] | < 0.02 | –
18 | C[C@@H](NC(=O)[C@H](O)[C@@H](O)C(=O)N1CCn2ccnc2C1)c1ccc(-n2cccn2)cc1 [Compound 2082] | 0.1 to 1 | –
19 | C[C@](O)(C(=O)NCC1CCN(c2ccccc2OC(F)(F)F)CC1)[C@@H](O)C(=O)N1Cc2cccnc2C1 [Compound 2038] | 0.02 to 0.1 | –
20 | Cc1nc2c(s1)CN(C(=O)[C@H](O)[C@@](C)(O)C(=O)N[C@H](C)c1ccc(-n3cccn3)cc1)C2 [Compound 2057] | < 0.02 | –
21 | CNc1nc([C@H]2C[C@H]3C[C@H]3N2C(=O)[C@H](O)[C@@H](O)C(=O)N[C@H](C)c2ccc(-n3cccn3)cc2)cs1 [Compound 2245] | < 0.02 | –
22 | C[C@@H](NC(=O)[C@H](O)[C@@H](O)C(=O)N1CCc2cn[nH]c2C1)c1ccc(-n2cccn2)cc1 [Compound 2076] | 0.02 to 0.1 | –
23 | C[C@@H](NC(=O)[C@H](O)[C@@H](O)C(=O)N1CCC[C@@H]1c1cc[nH]n1)c1ccc(-n2cccn2)cc1 [Compound 2247] | < 0.02 | –
24 | C[C@@H](NC(=O)[C@H](O)[C@@H](O)C(=O)N1CCCC1(C)c1csc(N)n1)c1ccc(-n2cccn2)cc1 (stereo partly drawn) [Compound 2243] | < 0.02 | –
25 | CCNc1nc(C2c3ccccc3CCN2C(=O)[C@H](O)[C@@H](O)C(=O)N[C@H](C)c2ccc(-n3cccn3)cc2)cs1 (stereo partly drawn) | – | 0.0003
26 | N#Cc1cc(F)ccc1N1[C@@H]2CC[C@H]1CC(CNC(=O)[C@H](O)[C@@H](O)C(=O)N1CCC[C@@H]1c1ccccc1)C2 (stereo partly drawn) [Compound 2148] | 0.1 to 1 | –
27 | Cc1cccc(C)c1Cc1csc(CNC(=O)[C@H](O)[C@@H](O)C(=O)N2CCCC2c2cccc(CN3CCCC3)c2)n1 (stereo partly drawn) | – | 0.0014
28 | C[C@@H]1CN(c2ccccc2C#N)CCC1CNC(=O)[C@H](O)[C@@H](O)C(=O)N1Cc2ccccc2C1 (stereo partly drawn) [Compound 2143] | < 0.02 | –
29 | CC1c2ncncc2CN1C(=O)[C@H](O)[C@@H](O)C(=O)N[C@H](C)c1ccc(-n2cccn2)cc1 (stereo partly drawn) [Compound 2049] | 0.02 to 0.1 | –
30 | CC#CCOc1cc([C@@H](C)NC(=O)[C@H](O)[C@@H](O)C(=O)N2CCC[C@@H]2c2csc(NC(C)C)n2)ccc1-n1cccn1 | – | 0.0029

Further lines, results first:

Row | Ki [1] [µM] | Ki [2] [µM] | Compound
31 | < 0.02 | – | C[C@@H](NC(=O)[C@H](O)[C@@H](O)C(=O)N1CCCC1(C)c1nccs1)c1ccc(-n2cccn2)cc1 (stereo partly drawn) [Compound 2251]
32 | > 1 | – | CC(C)CN(C(=O)[C@H](O)[C@@H](O)C(=O)N[C@H](C)c1ccc(-n2cccn2)cc1)C(C)c1cccc(Cl)c1 (stereo partly drawn) [Compound 2482]
33 | > 1 | – | O=C([C@H](O)[C@@H](O)c1cncc(-c2ccccc2)n1)N1Cc2ccccc2C1 [Compound 2391]
34 | > 1 | – | COc1nc(CNC(=O)[C@H](O)[C@@H](O)C(=O)N2CCCC2)ccc1-c1ccccc1OC(F)(F)F [Compound 2346]
35 | < 0.02 | – | CCNc1nc([C@H]2c3ccccc3CCN2C(=O)[C@H](O)[C@@H](O)C(=O)N[C@H](C)c2ccc(-n3cccn3)cc2)cs1 [Compound 2587]
36 | < 0.02 | – | CC(C)Nc1nc([C@H]2c3ccc(Cl)cc3CCN2C(=O)[C@H](O)[C@@H](O)C(=O)N[C@H](C)c2ccc(-n3cccn3)cc2)cs1 [Compound 2589]
37 | > 1 | – | Cn1cnnc1[C@H](O)[C@@H](O)C(=O)NCC1CCN(c2ccc(F)cc2C#N)CC1 [Compound 2376]
38 | > 1 | – | N#Cc1cc(F)ccc1N1CCC(CNC(=O)[C@H](O)[C@@H](N)C(=O)N2CCCC2)CC1 [Compound 2456]
39 | 0.02 to 0.1 | – | CC(c1cccc(Cl)c1)N(C)C(=O)[C@H](O)[C@@H](O)C(=O)N[C@H](C)c1ccc(-n2cccn2)cc1 (stereo partly drawn) [Compound 2480]
40 | < 0.02 | – | CC#CCOc1cc([C@@H](C)NC(=O)[C@H](O)[C@@H](O)C(=O)N2CC=CC2c2cccc(Cl)c2)ccc1-n1cccn1 (stereo partly drawn) [Compound 2572]
41 | – | 0.0011 | C[C@@H](NC(=O)[C@H](O)[C@@H](O)C(=O)N1CCc2ccccc2[C@@H]1c1csc(N)n1)c1ccc(-n2cccn2)cc1 [drawing 1309]
42 | 0.1 to 1 | – | Cc1cnc([C@H](O)[C@@H](O)C(=O)NCC2CCN(c3ccc(F)cc3C#N)CC2)n1C [Compound 2400]
43 | < 0.02 | – | C[C@@H](NC(=O)[C@H](O)[C@@H](O)C(=O)N1CCCC1c1nccs1)c1ccc(-n2cccn2)cc1 (stereo partly drawn) [Compound 2600]
44 | < 0.02 | – | CNc1nc([C@H]2CCCN2C(=O)[C@H](O)[C@@H](O)C(=O)N[C@H](C)c2ccc(-n3cccn3)cc2)c(C#N)s1 [Compound 2269]
45 | > 1 | – | N#Cc1cc(F)ccc1N1CCC(CNC(=O)[C@H](O)[C@@H](O)c2ccccn2)CC1 [Compound 2382]
46 | 0.02 to 0.1 | – | C[C@@H](NC(=O)[C@H](O)[C@@H](O)C(=O)N1CCCCC1)c1ccc(-n2cccn2)cc1 [Compound 2408]
47 | 0.1 to 1 | – | C[C@@H](NC(=O)[C@H](O)[C@@H](O)C(=O)N1C[C@H]2CNC[C@H]2C1)c1ccc(-n2cccn2)cc1 [Compound 2424]
48 | 0.02 to 0.1 | – | C[C@@H](NC(=O)[C@H](O)[C@@H](O)C(=O)N1Cc2cccnc2C1)c1ccc(-c2cccc(OCCC3CCCCC3)c2)cc1 [Compound 2353B]
49 | > 1 | – | Cc1nnc([C@H](O)[C@@H](O)C(=O)NCC2CCN(c3ccc(F)cc3C#N)CC2)n1C [Compound 2399]
50 | < 0.02 | – | CC#CCOc1cc([C@@H](C)NC(=O)[C@H](O)[C@@H](O)C(=O)N2Cc3cccnc3C2)ccc1-n1cccn1 [Compound 2359]
51 | – | 0.00054 | CC(C)Nc1nc([C@H]2c3ccccc3CN2C(=O)[C@H](O)[C@@H](O)C(=O)N[C@H](C)c2ccc(-n3cccn3)cc2)cs1 [drawing 1298]
52 | – | 0.0033 | CC(C)Nc1nc([C@@H]2c3ccc(Cl)cc3CCN2C(=O)[C@H](O)[C@@H](O)C(=O)N[C@H](C)c2ccc(-n3cccn3)cc2)cs1 [drawing 1324]
53 | > 1 | – | N#Cc1cc(F)ccc1N1CCC(CNC(=O)[C@H](O)[C@@H](O)c2cnccn2)CC1 [Compound 2387]
54 | > 1 | – | O=C(NCc1ccc(-c2ccccc2OCCN2CCOCC2)cc1)[C@H](O)[C@@H](O)C(=O)N1CCCC1 [Compound 2343]
55 | 0.1 to 1 | – | C[C@@H](NC(=O)[C@H](O)[C@@H](O)C(=O)N1C[C@H](O)[C@H](O)[C@H]1c1cccc(Cl)c1)c1ccc(-n2cccn2)cc1 [Compound 2267]
56 | < 0.02 | – | CNc1nccc([C@H]2CCCN2C(=O)[C@H](O)[C@@H](O)C(=O)N[C@H](C)c2ccc(-n3cccn3)cc2)n1 [Compound 2249]
57 | < 0.02 | – | C[C@@H](NC(=O)[C@H](O)[C@@H](O)C(=O)N1CCc2cc(Cl)c(Cl)cc2C1c1ccccc1)c1ccc(-n2cccn2)cc1 (stereo partly drawn) [Compound 2443]
58 | < 0.02 | – | C[C@@H](NC(=O)[C@H](O)[C@@H](O)C(=O)N1CCc2cc(Cl)ccc2C1c1ccccc1)c1ccc(-n2cccn2)cc1 (stereo partly drawn) [Compound 2444]
59 | – | 0.0023 | C[C@@H](NC(=O)[C@H](O)[C@@H](O)C(=O)N1CCC[C@@H]1c1ccn(-c2ccccc2)n1)c1ccc(-n2cccn2)cc1 [drawing 1318]
60 | 0.1 to 1 | – | C[C@@H](NC(=O)[C@H](O)[C@@H](O)C(=O)N1CCC(=O)N1c1cccc(Cl)c1)c1ccc(-n2cccn2)cc1 [Compound 2494]
